Test results as given in patent US11083723B2, “Use of roluperidone to treat negative symptoms and disorders, increase neuroplasticity, and promote neuroprotection” (Minerva Neurosciences, Inc., priority 2018, dated 2021).

Tests used:
[1] = tested on: GDNF release by primary rat astrocytes; test: GDNF release by primary rat astrocytes, in situ ELISA; type: cell-based; details: 1 μM, 5 days incubation
Procedure: Experimental Protocol-In Situ ELISA on Primary Astrocytes Rat Primary Culture of Astrocytes Rat mixed glial cells were cultured as described by McCarthy et al. Primary rat glial cells were prepared from the cortical of newborn Wistar rats (1 day). Briefly, meninges and blood vessels of the mice cortex were removed and placed in ice-cold medium of Leibovitz (L15; PanBiotech, ref P04-27055, batch 4511117) containing 2% Penicillin-Streptomycin (PS; PanBiotech, ref P06-07100, batch 2110917) and 1% of bovine serum albumin (BSA; […] Cells were then submitted to a supplementary incubation of 15 min. at 37° C. in presence of deoxyribonuclease I (0.1 mg/mL Panbiotech, ref: P60-37780100, batch: H140508). Cells were then pelleted (5 min. at 1200 rpm) and trypsinization was stopped by adding DMEM (PanBiotech, Ref P04-03600, Batch 8420517) supplemented with 10% FCS (Fischer, Ref 10270106, batch 41A0940K), 1 mM of Na/pyruvate (PanBiotech, ref: P04-43100, batch 3470914). Cells suspension was mechanically dissociated and filtered through […] diameter nylon meshes (BD Falcon, Ref: 352340). The cells were collected by centrifugation at 1200 rpm/min for 10 min, resuspended in culture medium and then plated in culture flasks (Dutscher, ref: 690175). Cells were seeded at a density of 1.25×10^5 cells/cm^2 and culture in 5% CO2 at 37° C. Medium was changed 3 times per week. At confluency, astrocytes were plated in 96-well Nunc MaxiSorp surface polystyrene flat-bottom immunoplate precoated with poly-D-lysine during 30 min (Sigma, Ref: […], batch: SLBS8705) and an anti-GDNF monoclonal antibody overnight at 4° C. at a density of 30,000 cells/well. […] At the end of drug treatment, cells were carefully washed with TBST (20 mM Tris-HCl (pH 7.6), 150 mM NaCl, and 0.05% (vol/vol) Tween 20). The plate was then incubated with the polyclonal anti-human GDNF antibody overnight. The amount of specifically bound polyclonal antibody, which when exposed to chromogenic substrate (TMB reagent; Promega), changes color in proportion to the amount of GDNF present in the sample. The color intensity was quantified by measuring the absorbance at 450 nm. GDNF standards, ranging in concentration from 0 to 500 pg/mL were added in parallel wells in the same medium than hippocampal neurons.

[2] = modified release (MR) formulation of Compound (I) that reduces QT prolongation; cited from earlier work
[3] = tested on: BDNF release by primary rat astrocytes; test: BDNF release by primary rat astrocytes, in situ ELISA; type: cell-based; details: 1 μM, 5 days incubation
Procedure: At confluency, astrocytes were plated in 96-well Nunc MaxiSorp surface polystyrene flat-bottom immunoplate precoated with poly-D-lysine during 30 min. and an anti-BDNF monoclonal antibody overnight at 4° C. at a density of 30,000 cells/well. […] At the end of drug treatment, cells were carefully washed with TBST (20 mM Tris-HCl (pH 7.6), 150 mM NaCl, and 0.05% (vol/vol) Tween 20). The plate was then incubated with the polyclonal anti-human BDNF antibody overnight and BDNF quantified. Experimental Protocol-In Situ ELISA on Primary Astrocytes Rat Primary Culture of Astrocytes Rat mixed glial cells were cultured as described by McCarthy et al. Primary rat glial cells were prepared from the cortical of newborn Wistar rats (1 day). […] Medium was changed 3 times per week. At confluency, astrocytes were plated in 96-well Nunc MaxiSorp surface polystyrene flat-bottom immunoplate precoated with poly-D-lysine during 30 min (Sigma, Ref: […], batch: SLBS8705) and an anti-BDNF monoclonal antibody overnight at 4° C. at a density of 30,000 cells/well. (Balkowiec and Katz “Cellular Mechanisms Regulating Activity-Dependent Release of Native Brain-Derived Neurotrophic Factor from Hippocampal Neurons” J. […] At the end of drug treatment, cells were carefully washed with TBST (20 mM Tris-HCl (pH 7.6), 150 mM NaCl, and 0.05% (vol/vol) Tween 20). The plate was then incubated with the polyclonal anti-human BDNF antibody overnight. The amount of specifically bound polyclonal antibody, which when exposed to chromogenic substrate (TMB reagent; Promega), changes color in proportion to the amount of BDNF present in the sample. The color intensity was quantified by measuring the absorbance at 450 nm. BDNF standards, ranging in concentration from 0 to 500 pg/mL were added in parallel wells in the same medium than hippocampal neurons.

[4] = tested on: BDNF release by primary hippocampal neurons; test: BDNF release by primary hippocampal neurons, in situ ELISA; type: cell-based, rat; details: 1 μM, 3 days incubation
Procedure: Hippocampal neurons were plated in 96-well Nunc MaxiSorp surface polystyrene flat-bottom immunoplate precoated with poly-D-lysine during 30 min an anti-BDNF monoclonal antibody overnight at 4° C. at a density of 70,000 cells/well. […] At the end of drug treatment, cells were carefully washed with TBST (20 mM Tris-HCl (pH 7.6), 150 mM NaCl, and 0.05% (vol/vol) Tween 20). The plate was then incubated with the polyclonal anti-human BDNF antibody overnight and BDNF quantified.
Experimental Protocol—In Situ ELISA on Primary Hippocampal Neurons Hippocampal Neuron Culture
Newborn rats (Wistar rats, Janvier) were deeply anesthetized by hypothermia and decapitated. […] Cells were mechanically dissociated by 3 passages through a 10 ml pipette. Cells were then centrifuged at 515×g for 10 min at 4° C. […] Viable cells were counted in a Neubauer cytometer using the trypan blue exclusion test.
Hippocampal neurons were plated in 96-well Nunc MaxiSorp surface polystyrene flat-bottom immunoplate precoated with poly-D-lysine during 30 min (Sigma, Ref: P7886, batch: SLBS8705) an anti-BDNF monoclonal antibody overnight at 4° C. at a density of 70000 cells/well.
At the end of drug treatment, cells were carefully washed with TBST (20 mM Tris-HCl (pH 7.6), 150 mM NaCl, and 0.05% (vol/vol) Tween 20). The plate was then incubated with the polyclonal anti-human BDNF antibody overnight. The amount of specifically bound polyclonal antibody was then detected through the use of the anti-IgY-horseradish peroxidase tertiary antibody, which when exposed to the chromogenic substrate (TMB reagent; Promega), changes color in proportion to the amount of BDNF present in the sample. The color intensity was quantified by measuring the absorbance at 450 nm.

[5] = tested on: BDNF expression by astrocytes; test: BDNF expression by astrocytes, qPCR; type: cell-based, rat; details: for BDNF expression astrocytes, % increase of control conditions: 25 ug/mL, 5 days incubation
Procedure: For analysis of BDNF expression by real-time quantitative polymerase chain reaction (qPCR), astrocytes were seeded in 24 well-plates pre-coated with poly-D-lysine. After 1 day of culture, fresh serum free medium containing compounds was added during 5 days at 37° C. At the end of the incubation time total RNA content were extracted and reverse transcription was performed. Expression levels were calculated using the ΔCt method where the expression level of the mRNA of interest is given by 2-ΔCT with ΔCT=CT target mRNA−CT reference mRNA (Gapdh), in the same sample.
Rat Primary Culture of Astrocytes—rat mixed glial cells were cultured as described by McCarthy et al., 1980. Primary rat glial cells were prepared from the cortical of newborn Wistar rats (1 day). Briefly, meninges and blood vessels of the mice cortex were removed and placed in ice-cold medium of Leibovitz (L15; PanBiotech, ref P04-27055, batch 4511117) containing 2% of Penicillin-Streptomycin (PS; PanBiotech, ref P06-07100, batch 2110917) and 1% of bovine serum albumin (BSA; PanBiotech, ref P06-1391100, batch H171006). Tissues were dissociated with 0.25% trypsin-EDTA (PanBiotech, ref P10-023100, batch 8970318) at 37° C. for 10 min. Cells were then submitted to a supplementary incubation of 15 min at 37° C. in presence of deoxyribonuclease I (0.1 mg/ml Panbiotech, ref: P60-37780100, batch: H170706). Cells were then pelleted (5 min at 1200 rpm) and trypsinization was stopped by adding DMEM (Panbiotech, Ref P04-03600, Batch 5181217) supplemented with 10% FCS (Fischer, Ref 10270106, batch 42G2068K), 1 mM of Na/pyruvate (PanBiotech, ref: P04-43100, batch: 3470914) and 2% PS. Cells suspension was mechanically dissociated and filtered through 40 μm diameter nylon meshes (BD Falcon, Ref: 352340). The cells were collected by centrifugation at 1200 rpm/min for 10 min, re-suspended in culture medium and then plated in culture flasks (Dutscher, ref: 690175). Cells were seeded at a density of 1.25×10^5 cells/cm^2 and cultured in 5% CO2 at 37° C. Medium was changed three times per week.
Analysis of BDNF expression by real-time quantitative polymerase chain reaction (PCR): astrocytes were seeded in 24 well-plates pre-coated with poly-D-lysine (Sigma, ref P7886, batch: SLBQ9797V). After 1 day of culture, fresh serum free medium containing compounds was added during 5 days at 37° C. At the end of the incubation time, medium was removed and total RNA content were extracted using kit nucleo spin RNS XS (Macherey Nagel; 20 μL/well). 6 wells/condition were done. RNA concentration was determined using a Nanodrop 2000 spectrophotometer (Life Technologies ThermoFisher Scientific, Villebon sur Yvette, France).
Reverse transcription was performed on 500 ng of RNA using the high capacity RNA-to-cDNA mix (Applied Biotechnologies). qPCR was performed on 12.5 ng of cDNA using the following primers, purchased from Applied Biotechnology.
For qPCR reactions, the kit TaqMan™ Fast Universal PCR Master Mix (2×) was used. The following volumes were used: mix: 10 uL, enzyme: 4 uL, oligo: 1 uL each, cDNA: 5 uL (12,5 ng). For the comparisons between various compounds and concentrations, expression levels were calculated using the ΔCt method where the expression level of the mRNA of interest is given by 2-ΔCT with ΔCT=CT target mRNA−CT reference mRNA (Gapdh), in the same sample. For the cultures treated with GA or the unknown compound, relative expression levels were determined according to the ΔΔCt method where the expression level of the mRNA of interest is given by 2-ΔΔCT where ΔΔCT=ΔCt for treated cultures−ΔCt for untreated cultures.

Molecule: Cc1cccc([C@H](C)c2cnc[nH]2)c1C [Dexmedetomidine, dexmedetomidine, reference compound]
- GDNF release astrocytes, % increase of control conditions [1]: 15.8%
- GDNF release astrocytes, % increase of control conditions ([1]; listed as dexmedetomidine): 15.8%

Molecule: O=C1c2ccccc2CN1CC1CCN(CC(O)c2ccc(F)cc2)CC1 (stereo not shown) [BFB-520]
- maximum plasma concentration (Cmax) [2]: < 12 ng/mL

Molecule: CCCN1CCC(c2cccc(S(C)(=O)=O)c2)CC1 [Pridopidine, pridopidine, reference compound]
- BDNF release astrocytes, % increase of control conditions [3]: 22.3%
- BDNF release astrocytes, % increase of control conditions ([3]; listed as pridopidine): 22%
- BDNF release hippocampal neurons, % increase of control conditions [4]: 18.4%
- BDNF release hippocampal neurons, % increase of control conditions ([4]; listed as pridopidine): 18.4%

Molecule: glatiramer acetate [reference compound]
- BDNF expression astrocytes, % increase of control conditions [5]: 10%
- BDNF expression astrocytes, % increase of control conditions ([5]; listed as glatiramer acetate): 10%
- Effect on BDNF expression by astrocytes compared to control condition (statistical) ([5]; 25 μg/mL, 5 days, ns p>0.05): no effect
